Our source for the normalised inhibition (eCFP-eYFP dual reporter) values is the OligoGym collection.

Oligonucleotides are written 5' to 3', each unit as a sugar letter and its base; * is a phosphorothioate linkage, no mark a phosphodiester; rarer units and linkages stand in square brackets, end groups in braces. Plain capitals give the bases only. d = 2'-deoxy (DNA); r = 2'-OH (RNA)
Further: test concentration or dose not given here.

For one data set, the target named is UBE2B. As to the kind of experiment: reporter assay of Huesken 2005. Conditions: siRNA. In general terms: Reporter assays use an easily measured gene product as a stand-in for the process of interest.
The substance “sense rArArArArGrArGrUrUrUrCrGrGrCrCrArUrUrGdTdT / antisense rCrArArUrGrGrCrCrGrArArArCrUrCrUrUrUrUdCdT” showed a normalised inhibition (eCFP-eYFP dual reporter) of 49.2%.
On the same count and under the same terms, under “sense rArArArCrUrArGrUrArArUrArGrArArUrUrUrUdTdT / antisense rArArArArUrUrCrUrArUrUrArCrUrArGrUrUrUdAdA” stands 47.5%.
Same read-out and setting: to “sense rArArCrArArCrArUrCrArUrGrCrArGrUrGrGrAdTdT / antisense rUrCrCrArCrUrGrCrArUrGrArUrGrUrUrGrUrUdTdT” belongs 56.4%.
Same read-out and setting: under “sense rArArCrArUrCrArUrGrCrArGrUrGrGrArArUrGdTdT / antisense rCrArUrUrCrCrArCrUrGrCrArUrGrArUrGrUrUdGdT” stands 55%; under “sense rArArCrCrGrArArUrCrCrUrArArCrArGrUrCrCdTdT / antisense rGrGrArCrUrGrUrUrArGrGrArUrUrCrGrGrUrUdCdA”, 49.9%.
In turn, “sense rArArUrArGrCrCrArGrGrCrArGrCrArCrArGrCdTdT / antisense rGrCrUrGrUrGrCrUrGrCrCrUrGrGrCrUrArUrUdGdG” displayed a normalised inhibition (eCFP-eYFP dual reporter) of 51%.
On the same count and under the same terms, to “sense rArArUrCrGrArUrGrGrArGrUrCrCrArArCrArUdTdT / antisense rArUrGrUrUrGrGrArCrUrCrCrArUrCrGrArUrUdCdT” belongs 74.4%; to “sense rArArUrGrUrUrUrCrArUrCrCrArArArUrGrUrGdTdT / antisense rCrArCrArUrUrUrGrGrArUrGrArArArCrArUrUdTdT”, 63.5%; to “sense rArArUrUrCrArGrUrCrUrCrUrGrCrUrGrGrArUdTdT / antisense rArUrCrCrArGrCrArGrArGrArCrUrGrArArUrUdGdA”, 60.8%.
Still for that read-out and setting: under “sense rArCrArArGrArGrGrArCrCrCrArCrCrUrGrUrGdTdT / antisense rCrArCrArGrGrUrGrGrGrUrCrCrUrCrUrUrGrUdAdA” stands 61.1%; under “sense rArCrCrArUrCrUrGrArArArArCrArArCrArUrCdTdT / antisense rGrArUrGrUrUrGrUrUrUrUrCrArGrArUrGrGrUdGdC”, 50.8%; under “sense rArCrCrUrGrUrGrGrGrUrGrUrCrArGrUrGrGrCdTdT / antisense rGrCrCrArCrUrGrArCrArCrCrCrArCrArGrGrUdGdG”, 76.7%.
Same read-out and setting: to “sense rArCrGrArGrArArUrArUrGrArGrArArArArGrAdTdT / antisense rUrCrUrUrUrUrCrUrCrArUrArUrUrCrUrCrGrUdTdT” belongs 84.2%; to “sense rArGrArArArArGrArGrUrUrUrCrGrGrCrCrArUdTdT / antisense rArUrGrGrCrCrGrArArArCrUrCrUrUrUrUrCrUdCdA”, 77.8%.
Substance “sense rArGrArArUrCrGrArUrGrGrArGrUrCrCrArArCdTdT / antisense rGrUrUrGrGrArCrUrCrCrArUrCrGrArUrUrCrUdGdA” yielded a normalised inhibition (eCFP-eYFP dual reporter) of 64.8%.
Consider “sense rArGrCrCrArArUrArGrCrCrArGrGrCrArGrCrAdTdT / antisense rUrGrCrUrGrCrCrUrGrGrCrUrArUrUrGrGrCrUdGdG”, for which the normalised inhibition (eCFP-eYFP dual reporter) worked out at 75.9%.
On the same count and under the same terms, to “sense rArGrCrCrArGrGrCrArGrCrArCrArGrCrUrUrUdTdT / antisense rArArArGrCrUrGrUrGrCrUrGrCrCrUrGrGrCrUdAdT” belongs 71.4%.
On the same count and under the same terms, under “sense rArGrGrGrArCrArCrCrUrUrUrUrGrArArGrArUdTdT / antisense rArUrCrUrUrCrArArArArGrGrUrGrUrCrCrCrUdTdC” stands 78.1%; under “sense rArGrUrCrCrArArCrArUrArUrGrArUrGrUrArUdTdT / antisense rArUrArCrArUrCrArUrArUrGrUrUrGrGrArCrUdCdC”, 83.6%; under “sense rArGrUrCrCrArGrCrCrArArUrArGrCrCrArGrGdTdT / antisense rCrCrUrGrGrCrUrArUrUrGrGrCrUrGrGrArCrUdGdT”, 68.7%.
Still for that read-out and setting: to “sense rArGrUrCrUrCrUrGrCrUrGrGrArUrGrArArCrCdTdT / antisense rGrGrUrUrCrArUrCrCrArGrCrArGrArGrArCrUdGdA” belongs 53.1%.
Regarding “sense rArGrUrUrArUrArUrUrUrGrGrArCrCrArGrArAdTdT / antisense rUrUrCrUrGrGrUrCrCrArArArUrArUrArArCrUdGdC”, the normalised inhibition (eCFP-eYFP dual reporter) is 79%.
On the same count and under the same terms, under “sense rArUrArGrCrCrArGrGrCrArGrCrArCrArGrCrUdTdT / antisense rArGrCrUrGrUrGrCrUrGrCrCrUrGrGrCrUrArUdTdG” stands 71.2%.
As to “sense rArUrArUrGrArGrArArArArGrArGrUrUrUrCrGdTdT / antisense rCrGrArArArCrUrCrUrUrUrUrCrUrCrArUrArUdTdC”, the normalised inhibition (eCFP-eYFP dual reporter) worked out at 46.3%.
Still for that read-out and setting: under “sense rArUrCrCrArArArUrGrUrGrUrArUrGrCrUrGrAdTdT / antisense rUrCrArGrCrArUrArCrArCrArUrUrUrGrGrArUdGdA” stands 73%; under “sense rArUrCrCrUrUrCrArGrArArUrCrGrArUrGrGrAdTdT / antisense rUrCrCrArUrCrGrArUrUrCrUrGrArArGrGrArUdAdT”, 77.2%.
Still for that read-out and setting: under “sense rArUrGrCrArGrUrUrArUrArUrUrUrGrGrArCrCdTdT / antisense rGrGrUrCrCrArArArUrArUrArArCrUrGrCrArUdTdC” stands 53.2%; under “sense rArUrGrGrUrArGrCrArUrArUrGrUrUrUrArGrAdTdT / antisense rUrCrUrArArArCrArUrArUrGrCrUrArCrCrArUdCdA”, 69.4%; under “sense rArUrGrUrUrUrArGrArUrArUrCrCrUrUrCrArGdTdT / antisense rCrUrGrArArGrGrArUrArUrCrUrArArArCrArUdAdT”, 46.7%.
“sense rArUrUrUrCrArArGrCrGrGrUrUrArCrArArGrAdTdT / antisense rUrCrUrUrGrUrArArCrCrGrCrUrUrGrArArArUdCdC” returned a normalised inhibition (eCFP-eYFP dual reporter) of 78.2%.
Same read-out and setting: under “sense rArUrUrUrUrCrUrGrArArGrArArUrArUrCrCrAdTdT / antisense rUrGrGrArUrArUrUrCrUrUrCrArGrArArArArUdTdC” stands 63.7%.
Same read-out and setting: under “sense rCrArArArUrGrUrGrUrArUrGrCrUrGrArUrGrGdTdT / antisense rCrCrArUrCrArGrCrArUrArCrArCrArUrUrUrGdGdA” stands 62.6%; under “sense rCrArGrArArUrCrGrArUrGrGrArGrUrCrCrArAdTdT / antisense rUrUrGrGrArCrUrCrCrArUrCrGrArUrUrCrUrGdAdA”, 86.3%.
On the same count and under the same terms, to “sense rCrArGrCrArCrArGrCrUrUrUrArUrCrArGrGrAdTdT / antisense rUrCrCrUrGrArUrArArArGrCrUrGrUrGrCrUrGdCdC” belongs 77.5%.
In the case of “sense rCrArGrGrArArArArCrArArArCrGrArGrArArUdTdT / antisense rArUrUrCrUrCrGrUrUrUrGrUrUrUrUrCrCrUrGdAdT”, the normalised inhibition (eCFP-eYFP dual reporter) came to 84%.
As to “sense rCrArGrGrCrArGrCrArCrArGrCrUrUrUrArUrCdTdT / antisense rGrArUrArArArGrCrUrGrUrGrCrUrGrCrCrUrGdGdC”, the normalised inhibition (eCFP-eYFP dual reporter) amounted to 75.1%.
For “sense rCrArGrUrGrGrArArUrGrCrArGrUrUrArUrArUdTdT / antisense rArUrArUrArArCrUrGrCrArUrUrCrCrArCrUrGdCdA”, the normalised inhibition (eCFP-eYFP dual reporter) was determined as 83.5%.
Still for that read-out and setting: to “sense rCrArGrUrGrGrCrGrCrArCrCrArUrCrUrGrArAdTdT / antisense rUrUrCrArGrArUrGrGrUrGrCrGrCrCrArCrUrGdAdC” belongs 61.8%.

For another data set, the target named is UBE2E3. As to the kind of experiment: reporter assay of Huesken 2005. The note with it: siRNA.
Substance “sense rUrCrUrCrUrArGrCrArArArArCrCrArCrUrGrCdTdT / antisense rGrCrArGrUrGrGrUrUrUrUrGrCrUrArGrArGrAdGdT” gave a normalised inhibition (eCFP-eYFP dual reporter) of 35.9%.
Still for that read-out and setting: under “sense rUrCrUrGrGrArUrArUrCrArCrArUrUrUrUrCrAdTdT / antisense rUrGrArArArArUrGrUrGrArUrArUrCrCrArGrAdAdA” stands 68.8%; under “sense rUrGrArArGrArArCrArArGrArGrGrArArArGrAdTdT / antisense rUrCrUrUrUrCrCrUrCrUrUrGrUrUrCrUrUrCrAdGdG”, 89.3%; under “sense rUrGrArArUrGrGrArGrArUrCrArArCrUrArUrAdTdT / antisense rUrArUrArGrUrUrGrArUrCrUrCrCrArUrUrCrAdTdA”, 90.5%.
Substance “sense rUrGrCrGrGrArUrCrCrUrCrUrGrGrUrUrGrGrAdTdT / antisense rUrCrCrArArCrCrArGrArGrGrArUrCrCrGrCrAdGdG” showed a normalised inhibition (eCFP-eYFP dual reporter) of 75.8%.
On the same count and under the same terms, under “sense rUrGrCrUrArArGrUrUrArUrCrCrArCrUrArGrUdTdT / antisense rArCrUrArGrUrGrGrArUrArArCrUrUrArGrCrAdGdT” stands 82.8%; under “sense rUrGrCrUrGrUrCrUrArUrUrUrGrUrUrCrCrCrUdTdT / antisense rArGrGrGrArArCrArArArUrArGrArCrArGrCrAdAdA”, 73.4%; under “sense rUrGrUrCrUrArUrUrUrGrUrUrCrCrCrUrUrUrUdTdT / antisense rArArArArGrGrGrArArCrArArArUrArGrArCrAdGdC”, 86%.
Same read-out and setting: under “sense rUrUrArUrCrCrArUrUrUrArArGrCrCrArCrCrAdTdT / antisense rUrGrGrUrGrGrCrUrUrArArArUrGrGrArUrArAdTdC” stands 28.7%; under “sense rUrUrCrCrGrCrArCrCrArGrArArUrCrUrArUrCdTdT / antisense rGrArUrArGrArUrUrCrUrGrGrUrGrCrGrGrArAdAdG”, 42.5%; under “sense rUrUrUrUrGrArCrArGrArCrUrGrCrArArCrCrCdTdT / antisense rGrGrGrUrUrGrCrArGrUrCrUrGrUrCrArArArAdGdG”, 50.3%.
